Measurements taken from patent publication US20100029654A1, “CARDIOVASCULAR COMPOSITIONS AND USE OF THE SAME FOR THE TREATMENT OF ALZHEIMER'S DISEASE” (MOUNT SINAI SCHOOL OF MEDICINE, priority 2006, published 2010).
Structures can show the parent of a compound that is named as a salt. Where two headings read alike, the source gives them in different places.

Key:
Aβ1-40 = Aβ1-40 content in conditioned medium of primary cortico-hippocampal neuron cultures from Tg2576 mice (ELISA; primary and secondary dose-response screening); assay type: cell-based, mouse; conditions: for activity at 100 µM: Mus musculus, Neuron, 24 h, read-out: Ab1-40 (% of ctl); for activity at 100 µM / Ab1-40 (% of ctl): drug 100 μM; for reduced Aβ1-40: <85% of ctl
Summary of the method: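 Primary cortico-hippocampal neurons from embryonic Tg2576 mice were plated at 1.0×10^5 cells per well on poly-D-lysine-coated 96-well plates in Neurobasal with 2% B27, 0.5 mM L-glutamine and 1% penicillin-streptomycin. Cultures received drug in 1% DMSO, and Aβ1-40 in the conditioned medium was measured by BioSource ELISA 24 hours after treatment, relative to vehicle controls.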

Aβ1-42 = Aβ1-42 content in conditioned medium of primary cortico-hippocampal neuron cultures from Tg2576 mice (ELISA; primary and secondary dose-response screening); assay type: cell-based, mouse; conditions: for activity at 100 µM: Mus musculus, Neuron, 24 h, read-out: Ab1-42 (% of ctl); for activity at 100 µM / Ab1-42 (% of ctl): drug 100 μM; for reducing Aβ1-42: <85% of ctl
Summary of the method: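 Primary cortico-hippocampal neurons from embryonic Tg2576 mouse brain were seeded on poly-D-lysine-coated 96-well plates at 1.0×10^5 cells per well in serum-free Neurobasal medium with 2% B27, 0.5 mM L-glutamine and 1% penicillin-streptomycin. For primary screening, duplicate wells received 100 μM drug (1% DMSO final). Vehicle-treated cultures served as controls, and Aβ1-42 in conditioned medium was measured by commercial ELISA.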

[1] = system: primary cortico-hippocampal neuron cultures; assay: MTT in primary screening
[2] = system: primary cortico-hippocampal neuron cultures; assay: lactate dehydrogenase (LDH) activity assay in parallel neuron cultures
Method: For in vitro treatments drugs available from “The Spectrum Collection” in stocks of 10 mM in DMSO were applied directly to cultures to the desired concentrations (final 1% DMSO); control primary neuron cultures from Tg2576 embryos were treated with vehicle resulting in a final 1% DMSO.
Cell viability was assessed using a commercial available LDH assay kit according to the manufacture's instruction (Promega).

[3] = Primary Screening, table sorted by Aβ1-40
[4] = primary screening, Tg2576 neuron cultures, table sorted by Aβ1-42
[5] = primary screening, table sorted by Aβ1-42

Row | Molecule | activity at 100 µM (Aβ1-40; [3]) | activity at 100 µM (Aβ1-40; [4]) | activity at 100 µM (Aβ1-42; [3]) | activity at 100 µM (Aβ1-42; [4]) | MTT (% of ctl) [1, 3] | MTT (% of ctl) [1, 5] | LDH (% of ctl) [2, 3] | LDH (% of ctl) [2, 5] | reduced Aβ1-40 (Aβ1-40; primary screening) | reducing Aβ1-42 (Aβ1-42; primary screening) | Ab1-40 (% of ctl) (Aβ1-40; [3]) | Ab1-40 (% of ctl) (Aβ1-40; [4]) | Ab1-42 (% of ctl) (Aβ1-42; [3]) | Ab1-42 (% of ctl) (Aβ1-42; [4])
1 | C[C@@H]1CCC[C@H](C)N1NC(=O)c1ccc(Cl)c(S(N)(=O)=O)c1 [Clopamide] | 92% | 92% | 98.9% | 98.9% | 99.2 % of ctl | 99.2 % of ctl | 99.9 % of ctl | 99.9 % of ctl | – | – | – | – | – | –
2 | C=C[C@H]1C[N@@]2CC[C@H]1C[C@@H]2[C@@H](O)c1ccnc2ccc(OC)cc12 [Quinidine Gluconate] | 63.3% | 63.3% | 70% | 70% | 46.8 % of ctl | 46.8 % of ctl | 357.6 % of ctl | 357.6 % of ctl | reduced Aβ1-40 | useful in reducing Aβ1-42 | – | – | – | –
3 | Fc1ccc(C(c2ccc(F)cc2)N2CCN(C/C=C/c3ccccc3)CC2)cc1 [Flunarizine Hydrochloride] | 42.1% | 42.1% | 53.3% | 53.3% | 59.4 % of ctl | 59.4 % of ctl | 120.4 % of ctl | 120.4 % of ctl | reduced Aβ1-40 | useful in reducing Aβ1-42 | – | – | – | –
4 | C#CCN(C)Cc1ccccc1 [Pargyline Hydrochloride] | 78.6% | 78.6% | 106% | 106% | 86.4 % of ctl | 86.4 % of ctl | 116.9 % of ctl | 116.9 % of ctl | reduced Aβ1-40 | – | – | – | – | –
5 | CC(N)CCCC(C)(C)O (stereo not drawn) [Heptaminol Hydrochloride] | 112% | 112% | 105% | 105% | 103.4 % of ctl | 103.4 % of ctl | 103.4 % of ctl | 103.4 % of ctl | – | – | – | – | – | –
6 | CCCCNc1cc(C(=O)O)cc(S(N)(=O)=O)c1Oc1ccccc1 [Bumetanide] | 2.3% | 2.3% | 74.7% | 74.7% | 95.3 % of ctl | 95.3 % of ctl | 118.1 % of ctl | 118.1 % of ctl | reduced Aβ1-40 | useful in reducing Aβ1-42 | – | – | – | –
7 | COc1ccc(OC)c(C(O)CNC(=O)CN)c1 (stereo not drawn) [Midodrine Hydrochloride] | 86% | 86% | 76.7% | 76.7% | 87.8 % of ctl | 87.8 % of ctl | 105.6 % of ctl | 105.6 % of ctl | – | useful in reducing Aβ1-42 | – | – | – | –
8 | CCOc1nc2cccc(C(=O)OC(C)OC(=O)OC3CCCCC3)c2n1Cc1ccc(-c2ccccc2-c2nn[nH]n2)cc1 (stereo not drawn) [Candesartan Cilextil] | – | – | – | – | 41.2 % of ctl | 41.2 % of ctl | 227.6 % of ctl | 227.6 % of ctl | reduced Aβ1-40 | useful in reducing Aβ1-42 | 9.3 % of ctl | 9.3 % of ctl | 18.1 % of ctl | 18.1 % of ctl
9 | CC(CCc1ccc(O)cc1)NCCc1ccc(O)c(O)c1 (stereo not drawn) [Dobutamine Hydrochloride] | 90.1% | 90.1% | 103% | 103% | 99.5 % of ctl | 99.5 % of ctl | 103.1 % of ctl | 103.1 % of ctl | – | – | – | – | – | –
10 | Cc1cc(C(C)(C)C)c(O)c(C)c1CC1=NCCN1 [Oxymetazoline Hydrochloride] | 78% | 78% | 44.9% | 44.9% | 97.3 % of ctl | 97.3 % of ctl | 97.0 % of ctl | 97.0 % of ctl | reduced Aβ1-40 | useful in reducing Aβ1-42 | – | – | – | –
11 | CC[C@]12CCCN3CCc4c(n(c5ccccc45)[C@@](O)(C(=O)OC)C1)[C@@H]32 [Vincamine] | 99.1% | 99.1% | 104% | 104% | 98.5 % of ctl | 98.5 % of ctl | 96.4 % of ctl | 96.4 % of ctl | – | – | – | – | – | –
12 | NS(=O)(=O)c1cc(C2(O)NC(=O)c3ccccc32)ccc1Cl (stereo not drawn) [Chlorthalidone] | 108% | 108% | 96.7% | 96.7% | 12.1 % of ctl | 12.1 % of ctl | 645.8 % of ctl | 645.8 % of ctl | – | – | – | – | – | –
13 | CCCCC1=NC2(CCCC2)C(=O)N1Cc1ccc(-c2ccccc2-c2nnn[nH]2)cc1 [Irbesartan] | 89.7% | 89.7% | 82.3% | 82.3% | 98.9 % of ctl | 98.9 % of ctl | 112.5 % of ctl | 112.5 % of ctl | – | useful in reducing Aβ1-42 | – | – | – | –
14 | Phenylbutyrate Sodium | – | – | – | – | 70.2 % of ctl | 70.2 % of ctl | 192.3 % of ctl | 192.3 % of ctl | – | – | 102.1 % of ctl | 102.1 % of ctl | 86.6 % of ctl | 86.6 % of ctl
15 | C=CCc1ccccc1OCC(O)CNC(C)C (stereo not drawn) [Alprenolol] | 93.8% | 93.8% | 106% | 106% | 92.2 % of ctl | 92.2 % of ctl | 128.0 % of ctl | 128.0 % of ctl | – | – | – | – | – | –
16 | CN1C(C)(C)CCCC1(C)C [Pempidine Tartrate] | 80.9% | 80.9% | 78.6% | 78.6% | 91.3 % of ctl | 91.3 % of ctl | 108.4 % of ctl | 108.4 % of ctl | reduced Aβ1-40 | useful in reducing Aβ1-42 | – | – | – | –
17 | CC(=O)O[C@H]1C[C@H](O[C@H]2[C@@H](O)C[C@H](O[C@H]3[C@@H](O)C[C@H](O[C@H]4CC[C@@]5(C)[C@H](CC[C@@H]6[C@@H]5C[C@@H](O)[C@]5(C)[C@@H](C7=CC(=O)OC7)CC[C@]65O)C4)O[C@@H]3C)O[C@@H]2C)O[C@H](C)[C@H]1O[C@@H]1O[C@H](CO)[C@@H](O)[C@H](O)[C@H]1O [Lanatoside C] | – | – | – | – | 66.5 % of ctl | 66.5 % of ctl | 166.0 % of ctl | 166.0 % of ctl | reduced Aβ1-40 | – | 45.8 % of ctl | 45.8 % of ctl | 100.3 % of ctl | 100.3 % of ctl
18 | CO[C@]12C[C@@H](COC(=O)c3cncc(Br)c3)CN(C)[C@@H]1Cc1cn(C)c3cccc2c13 [Nicergoline] | 76.1% | 76.1% | 98.5% | 98.5% | 99.8 % of ctl | 99.8 % of ctl | 106.2 % of ctl | 106.2 % of ctl | reduced Aβ1-40 | – | – | – | – | –
19 | Nc1cc(N2CCCCC2)nc(N)[n+]1[O-] [Minoxidil] | 94.2% | 94.2% | 98.9% | 98.9% | 98.5 % of ctl | 98.5 % of ctl | 117.1 % of ctl | 117.1 % of ctl | – | – | – | – | – | –
20 | NS(=O)(=O)c1cc2c(cc1Cl)N=CNS2(=O)=O [Chlorothiazide] | 107% | 107% | 104% | 104% | 99.4 % of ctl | 99.4 % of ctl | 110.3 % of ctl | 110.3 % of ctl | – | – | – | – | – | –
